Measured values from PubChem BioAssay (NCI).
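GI50 = concentration required for 50% inhibition of growth. Definition used: TGI = concentration required for complete inhibition of growth.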

Key:
Test in all cases: DTP human tumour cell line panel, 384-well format
NCI-H522 lung = tested on: NCI-H522 lung
SK-MEL-5 melanoma = tested on: SK-MEL-5 melanoma
LOX IMVI melanoma = tested on: LOX IMVI melanoma
HCT-15 colon = tested on: HCT-15 colon
K-562 leukemia = tested on: K-562 leukemia
ACHN renal = tested on: ACHN renal
KM12 colon = tested on: KM12 colon
HS 578T breast = tested on: HS 578T breast
MDA-MB-231 breast = tested on: MDA-MB-231 breast
COLO 205 colon = tested on: COLO 205 colon
OVCAR-4 ovarian = tested on: OVCAR-4 ovarian
HOP-62 NSCLC = tested on: HOP-62 NSCLC
OVCAR-3 ovarian = tested on: OVCAR-3 ovarian
HOP-92 NSCLC = tested on: HOP-92 NSCLC
SK-OV-3 ovarian = tested on: SK-OV-3 ovarian
RPMI-8226 leukemia = tested on: RPMI-8226 leukemia
MALME-3M melanoma = tested on: MALME-3M melanoma
SW-620 colon = tested on: SW-620 colon
T-47D breast = tested on: T-47D breast
A549 NSCLC = tested on: A549 NSCLC
TK-10 renal = tested on: TK-10 renal
SNB-19 CNS = tested on: SNB-19 CNS
SF-295 CNS = tested on: SF-295 CNS
RXF 393 renal = tested on: RXF 393 renal
U251 glioblastoma = tested on: U251 glioblastoma
SF-539 CNS = tested on: SF-539 CNS
786-0 renal = tested on: 786-0 renal
NCI-H460 NSCLC = tested on: NCI-H460 NSCLC
SF-268 CNS = tested on: SF-268 CNS
PC-3 prostate = tested on: PC-3 prostate
A498 renal = tested on: A498 renal
NCI-H226 lung = tested on: NCI-H226 lung
SR leukemia = tested on: SR leukemia
BT-549 breast = tested on: BT-549 breast
SK-MEL-28 melanoma = tested on: SK-MEL-28 melanoma
CAKI-1 renal = tested on: CAKI-1 renal
IGROV1 ovarian = tested on: IGROV1 ovarian
HT29 colon = tested on: HT29 colon
UACC-257 melanoma = tested on: UACC-257 melanoma
SN12C renal = tested on: SN12C renal
MOLT-4 leukemia = tested on: MOLT-4 leukemia
MDA-MB-435 melanoma = tested on: MDA-MB-435 melanoma
NCI-H322M lung = tested on: NCI-H322M lung
UACC-62 melanoma = tested on: UACC-62 melanoma
SNB-75 CNS = tested on: SNB-75 CNS
HCT-116 colon = tested on: HCT-116 colon
NCI-H23 lung = tested on: NCI-H23 lung
MDA-MB-468 breast = tested on: MDA-MB-468 breast
CCRF-CEM leukemia = tested on: CCRF-CEM leukemia
HCC-2998 colon = tested on: HCC-2998 colon
NCI/ADR-RES ovarian = tested on: NCI/ADR-RES ovarian
HL-60(TB) leukemia = tested on: HL-60(TB) leukemia
EKVX NSCLC = tested on: EKVX NSCLC
OVCAR-8 ovarian = tested on: OVCAR-8 ovarian
DU-145 prostate = tested on: DU-145 prostate
UO-31 renal = tested on: UO-31 renal
M14 melanoma = tested on: M14 melanoma
MCF7 breast = tested on: MCF7 breast

Question: With `COc1cc2c(Nc3ccc(Cl)c(Cl)c3F)ncnc2cc1OCC1C[C@@H]2CN(C)C[C@@H]2C1` (stereo partly specified) as the molecule, how does the GI50 (NCI-H522 lung) read?
Answer: 0.0801 µM

Question: And the TGI (NCI-H522 lung)?
Answer: 1.44 µM

Question: And the GI50 (SK-MEL-5 melanoma)?
Answer: 1.22 µM

Question: And the TGI (SK-MEL-5 melanoma)?
Answer: 2.46 µM

Question: What about the GI50 (LOX IMVI melanoma) of the same molecule?
Answer: 1.15 µM

Question: And the TGI (LOX IMVI melanoma)?
Answer: 2.38 µM

Question: What about the GI50 (HCT-15 colon) of the same molecule?
Answer: 0.89 µM

Question: What about the TGI (HCT-15 colon) of the same molecule?
Answer: 2.13 µM

Question: And the GI50 (K-562 leukemia)?
Answer: 0.051 µM

Question: And the TGI (K-562 leukemia)?
Answer: 0.181 µM

Question: What about the GI50 (ACHN renal) of the same molecule?
Answer: 0.0691 µM

Question: And the TGI (ACHN renal)?
Answer: 1.28 µM

Question: And the GI50 (KM12 colon)?
Answer: 1.63 µM

Question: What about the TGI (KM12 colon) of the same molecule?
Answer: 3.01 µM

Question: And the GI50 (HS 578T breast)?
Answer: 1.08 µM

Question: And the TGI (HS 578T breast)?
Answer: 2.28 µM

Question: And the GI50 (MDA-MB-231 breast)?
Answer: 1.18 µM

Question: What about the TGI (MDA-MB-231 breast) of the same molecule?
Answer: 2.47 µM

Question: And the GI50 (COLO 205 colon)?
Answer: 1.81 µM

Question: And the TGI (COLO 205 colon)?
Answer: 3.28 µM

Question: What about the GI50 (OVCAR-4 ovarian) of the same molecule?
Answer: 1.36 µM

Question: And the TGI (OVCAR-4 ovarian)?
Answer: 3.15 µM

Question: What about the GI50 (HOP-62 NSCLC) of the same molecule?
Answer: 1.31 µM

Question: And the TGI (HOP-62 NSCLC)?
Answer: 2.59 µM

Question: And the GI50 (OVCAR-3 ovarian)?
Answer: 0.0938 µM

Question: And the TGI (OVCAR-3 ovarian)?
Answer: 1.52 µM

Question: And the GI50 (HOP-92 NSCLC)?
Answer: 1.15 µM

Question: What about the TGI (HOP-92 NSCLC) of the same molecule?
Answer: 2.37 µM

Question: And the GI50 (SK-OV-3 ovarian)?
Answer: 0.189 µM

Question: What about the TGI (SK-OV-3 ovarian) of the same molecule?
Answer: 1.43 µM

Question: What about the GI50 (RPMI-8226 leukemia) of the same molecule?
Answer: 1.39 µM

Question: And the TGI (RPMI-8226 leukemia)?
Answer: 2.68 µM

Question: And the GI50 (MALME-3M melanoma)?
Answer: 1.16 µM

Question: What about the TGI (MALME-3M melanoma) of the same molecule?
Answer: 2.38 µM

Question: And the GI50 (SW-620 colon)?
Answer: 1.56 µM

Question: And the TGI (SW-620 colon)?
Answer: 2.9 µM

Question: What about the GI50 (T-47D breast) of the same molecule?
Answer: 1.02 µM

Question: What about the TGI (T-47D breast) of the same molecule?
Answer: 2.23 µM

Question: What about the GI50 (A549 NSCLC) of the same molecule?
Answer: 0.974 µM

Question: What about the TGI (A549 NSCLC) of the same molecule?
Answer: 2.16 µM

Question: What about the GI50 (TK-10 renal) of the same molecule?
Answer: 0.156 µM

Question: What about the TGI (TK-10 renal) of the same molecule?
Answer: 1.23 µM

Question: What about the GI50 (SNB-19 CNS) of the same molecule?
Answer: 1.41 µM

Question: What about the TGI (SNB-19 CNS) of the same molecule?
Answer: 2.74 µM

Question: What about the GI50 (SF-295 CNS) of the same molecule?
Answer: 1.68 µM

Question: And the TGI (SF-295 CNS)?
Answer: 3.06 µM

Question: And the GI50 (RXF 393 renal)?
Answer: 0.512 µM

Question: And the TGI (RXF 393 renal)?
Answer: 1.86 µM

Question: What about the GI50 (U251 glioblastoma) of the same molecule?
Answer: 1.6 µM

Question: What about the TGI (U251 glioblastoma) of the same molecule?
Answer: 2.95 µM

Question: What about the GI50 (SF-539 CNS) of the same molecule?
Answer: 1.14 µM

Question: And the TGI (SF-539 CNS)?
Answer: 2.36 µM

Question: And the GI50 ([…]-0 renal)?
Answer: 0.71 µM

Question: What about the TGI (786-0 renal) of the same molecule?
Answer: 2.03 µM

Question: And the GI50 (NCI-H460 NSCLC)?
Answer: 1.33 µM

Question: And the TGI (NCI-H460 NSCLC)?
Answer: 2.62 µM

Question: And the GI50 (SF-268 CNS)?
Answer: 1.1 µM

Question: And the TGI (SF-268 CNS)?
Answer: 2.3 µM

Question: And the GI50 (PC-3 prostate)?
Answer: 1.12 µM

Question: And the TGI (PC-3 prostate)?
Answer: 2.5 µM

Question: What about the GI50 (A498 renal) of the same molecule?
Answer: 0.94 µM

Question: And the TGI (A498 renal)?
Answer: 2.15 µM

Question: What about the GI50 (NCI-H226 lung) of the same molecule?
Answer: 1.26 µM

Question: And the TGI (NCI-H226 lung)?
Answer: 2.7 µM

Question: And the GI50 (SR leukemia)?
Answer: 0.415 µM

Question: What about the TGI (SR leukemia) of the same molecule?
Answer: 0.801 µM

Question: What about the GI50 (BT-549 breast) of the same molecule?
Answer: 1.3 µM

Question: And the TGI (BT-549 breast)?
Answer: 2.58 µM

Question: What about the GI50 (SK-MEL-28 melanoma) of the same molecule?
Answer: 1.45 µM

Question: What about the TGI (SK-MEL-28 melanoma) of the same molecule?
Answer: 2.77 µM

Question: And the GI50 (CAKI-1 renal)?
Answer: 0.123 µM

Question: And the TGI (CAKI-1 renal)?
Answer: 1.6 µM

Question: What about the GI50 (IGROV1 ovarian) of the same molecule?
Answer: 0.0332 µM

Question: And the TGI (IGROV1 ovarian)?
Answer: 0.199 µM

Question: What about the GI50 (HT29 colon) of the same molecule?
Answer: 0.598 µM

Question: And the TGI (HT29 colon)?
Answer: 1.92 µM

Question: What about the GI50 (UACC-257 melanoma) of the same molecule?
Answer: 0.208 µM

Question: What about the TGI (UACC-257 melanoma) of the same molecule?
Answer: 0.409 µM

Question: And the GI50 (SN12C renal)?
Answer: 0.161 µM

Question: What about the TGI (SN12C renal) of the same molecule?
Answer: 1.4 µM

Question: What about the GI50 (MOLT-4 leukemia) of the same molecule?
Answer: 1.1 µM

Question: What about the TGI (MOLT-4 leukemia) of the same molecule?
Answer: 2.3 µM

Question: What about the GI50 (MDA-MB-435 melanoma) of the same molecule?
Answer: 1.69 µM

Question: What about the TGI (MDA-MB-435 melanoma) of the same molecule?
Answer: 3.07 µM

Question: And the GI50 (NCI-H322M lung)?
Answer: 0.0317 µM

Question: What about the TGI (NCI-H322M lung) of the same molecule?
Answer: 0.366 µM

Question: What about the GI50 (UACC-62 melanoma) of the same molecule?
Answer: 1.12 µM

Question: And the TGI (UACC-62 melanoma)?
Answer: 2.33 µM

Question: What about the GI50 (SNB-75 CNS) of the same molecule?
Answer: 1.31 µM

Question: And the TGI (SNB-75 CNS)?
Answer: 2.59 µM

Question: And the GI50 (HCT-116 colon)?
Answer: 1.39 µM

Question: What about the TGI (HCT-116 colon) of the same molecule?
Answer: 2.72 µM

Question: What about the GI50 (NCI-H23 lung) of the same molecule?
Answer: 1.02 µM

Question: What about the TGI (NCI-H23 lung) of the same molecule?
Answer: 2.23 µM

Question: And the GI50 (MDA-MB-468 breast)?
Answer: 0.0307 µM

Question: And the TGI (MDA-MB-468 breast)?
Answer: 0.162 µM

Question: And the GI50 (CCRF-CEM leukemia)?
Answer: 1.52 µM

Question: What about the TGI (CCRF-CEM leukemia) of the same molecule?
Answer: 2.85 µM

Question: What about the GI50 (HCC-2998 colon) of the same molecule?
Answer: 1.48 µM

Question: What about the TGI (HCC-2998 colon) of the same molecule?
Answer: 2.81 µM

Question: What about the GI50 (NCI/ADR-RES ovarian) of the same molecule?
Answer: 1.4 µM

Question: And the TGI (NCI/ADR-RES ovarian)?
Answer: 2.8 µM

Question: What about the GI50 (HL-60(TB) leukemia) of the same molecule?
Answer: 1.67 µM

Question: And the TGI (HL-60(TB) leukemia)?
Answer: 3.03 µM

Question: And the GI50 (EKVX NSCLC)?
Answer: 0.0472 µM

Question: And the TGI (EKVX NSCLC)?
Answer: 1.13 µM

Question: And the GI50 (OVCAR-8 ovarian)?
Answer: 1.11 µM

Question: And the TGI (OVCAR-8 ovarian)?
Answer: 2.32 µM

Question: What about the GI50 (DU-145 prostate) of the same molecule?
Answer: 0.557 µM

Question: And the TGI (DU-145 prostate)?
Answer: 2.18 µM

Question: And the GI50 (UO-31 renal)?
Answer: 0.252 µM

Question: What about the TGI (UO-31 renal) of the same molecule?
Answer: 1.65 µM

Question: And the GI50 (M14 melanoma)?
Answer: 1.65 µM

Question: What about the TGI (M14 melanoma) of the same molecule?
Answer: 3.02 µM

Question: What about the GI50 (MCF7 breast) of the same molecule?
Answer: 1.09 µM

Question: And the TGI (MCF7 breast)?
Answer: 2.3 µM
